Measured values reported in the NIST ThermoML archive (doi:10.1021/je0499768).
± gives the expanded uncertainty stated by the source.

Test: molar heat capacity at constant pressure
Details: 101.33 kPa

## CCCO [propan-1-ol]
5.01 K, Crystal
  molar heat capacity at constant pressure: 0.17 ± 0.02 J/K/mol
5.41 K, Crystal
  molar heat capacity at constant pressure: 0.22 ± 0.02 J/K/mol
6.14 K, Crystal
  molar heat capacity at constant pressure: 0.29 ± 0.03 J/K/mol
6.36 K, Crystal
  molar heat capacity at constant pressure: 0.35 ± 0.03 J/K/mol
7.33 K, Crystal
  molar heat capacity at constant pressure: 0.52 ± 0.03 J/K/mol
7.72 K, Crystal
  molar heat capacity at constant pressure: 0.61 ± 0.03 J/K/mol
8.72 K, Crystal
  molar heat capacity at constant pressure: 0.9 ± 0.04 J/K/mol
8.94 K, Crystal
  molar heat capacity at constant pressure: 0.94 ± 0.04 J/K/mol
10.13 K, Crystal
  molar heat capacity at constant pressure: 1.44 ± 0.04 J/K/mol
10.33 K, Crystal
  molar heat capacity at constant pressure: 1.49 ± 0.04 J/K/mol
11.74 K, Crystal
  molar heat capacity at constant pressure: 2.19 ± 0.05 J/K/mol
11.83 K, Crystal
  molar heat capacity at constant pressure: 2.23 ± 0.05 J/K/mol
13.48 K, Crystal
  molar heat capacity at constant pressure: 3.15 ± 0.07 J/K/mol
13.5 K, Crystal
  molar heat capacity at constant pressure: 3.19 ± 0.07 J/K/mol
15.36 K, Crystal
  molar heat capacity at constant pressure: 4.38 ± 0.08 J/K/mol
15.38 K, Crystal
  molar heat capacity at constant pressure: 4.4 ± 0.08 J/K/mol
17.37 K, Crystal
  molar heat capacity at constant pressure: 5.81 ± 0.09 J/K/mol
17.42 K, Crystal
  molar heat capacity at constant pressure: 5.83 ± 0.09 J/K/mol
19.52 K, Crystal
  molar heat capacity at constant pressure: 7.46 ± 0.11 J/K/mol
19.6 K, Crystal
  molar heat capacity at constant pressure: 7.53 ± 0.11 J/K/mol
21.78 K, Crystal
  molar heat capacity at constant pressure: 9.32 ± 0.12 J/K/mol
21.9 K, Crystal
  molar heat capacity at constant pressure: 9.44 ± 0.12 J/K/mol
24.15 K, Crystal
  molar heat capacity at constant pressure: 11.43 ± 0.13 J/K/mol
24.29 K, Crystal
  molar heat capacity at constant pressure: 11.57 ± 0.13 J/K/mol
26.63 K, Crystal
  molar heat capacity at constant pressure: 13.58 ± 0.13 J/K/mol
26.79 K, Crystal
  molar heat capacity at constant pressure: 13.71 ± 0.13 J/K/mol
29.24 K, Crystal
  molar heat capacity at constant pressure: 15.59 ± 0.13 J/K/mol
29.43 K, Crystal
  molar heat capacity at constant pressure: 15.75 ± 0.13 J/K/mol
32.1 K, Crystal
  molar heat capacity at constant pressure: 18.09 ± 0.15 J/K/mol
34.44 K, Crystal
  molar heat capacity at constant pressure: 20.16 ± 0.16 J/K/mol
36.72 K, Crystal
  molar heat capacity at constant pressure: 21.88 ± 0.17 J/K/mol
39.11 K, Crystal
  molar heat capacity at constant pressure: 23.5 ± 0.17 J/K/mol
41.56 K, Crystal
  molar heat capacity at constant pressure: 25.36 ± 0.18 J/K/mol
44.03 K, Crystal
  molar heat capacity at constant pressure: 27.19 ± 0.19 J/K/mol
46.52 K, Crystal
  molar heat capacity at constant pressure: 28.98 ± 0.2 J/K/mol
49.05 K, Crystal
  molar heat capacity at constant pressure: 30.75 ± 0.2 J/K/mol
51.61 K, Crystal
  molar heat capacity at constant pressure: 32.44 ± 0.21 J/K/mol
54.2 K, Crystal
  molar heat capacity at constant pressure: 34.01 ± 0.22 J/K/mol
56.81 K, Crystal
  molar heat capacity at constant pressure: 35.59 ± 0.22 J/K/mol
59.46 K, Crystal
  molar heat capacity at constant pressure: 37.12 ± 0.23 J/K/mol
62.13 K, Crystal
  molar heat capacity at constant pressure: 38.64 ± 0.23 J/K/mol
64.82 K, Crystal
  molar heat capacity at constant pressure: 40.12 ± 0.24 J/K/mol
67.54 K, Crystal
  molar heat capacity at constant pressure: 41.54 ± 0.25 J/K/mol
70.28 K, Crystal
  molar heat capacity at constant pressure: 42.95 ± 0.25 J/K/mol
73.03 K, Crystal
  molar heat capacity at constant pressure: 44.31 ± 0.26 J/K/mol
75.8 K, Crystal
  molar heat capacity at constant pressure: 45.65 ± 0.26 J/K/mol
78.58 K, Crystal
  molar heat capacity at constant pressure: 46.95 ± 0.27 J/K/mol
81.38 K, Crystal
  molar heat capacity at constant pressure: 48.22 ± 0.27 J/K/mol
84.17 K, Crystal
  molar heat capacity at constant pressure: 49.46 ± 0.28 J/K/mol
86.9 K, Crystal
  molar heat capacity at constant pressure: 50.65 ± 0.28 J/K/mol
89.55 K, Crystal
  molar heat capacity at constant pressure: 51.79 ± 0.29 J/K/mol
92.15 K, Crystal
  molar heat capacity at constant pressure: 52.87 ± 0.51 J/K/mol
94.68 K, Crystal
  molar heat capacity at constant pressure: 53.91 ± 0.51 J/K/mol
97.15 K, Crystal
  molar heat capacity at constant pressure: 54.9 ± 0.51 J/K/mol
98.26 K, Crystal
  molar heat capacity at constant pressure: 55.24 ± 0.51 J/K/mol
99.58 K, Crystal
  molar heat capacity at constant pressure: 55.88 ± 0.51 J/K/mol
101.41 K, Crystal
  molar heat capacity at constant pressure: 56.44 ± 0.51 J/K/mol
104.32 K, Crystal
  molar heat capacity at constant pressure: 57.81 ± 0.52 J/K/mol
107.19 K, Crystal
  molar heat capacity at constant pressure: 59.01 ± 0.52 J/K/mol
110.07 K, Crystal
  molar heat capacity at constant pressure: 60.14 ± 0.52 J/K/mol
112.95 K, Crystal
  molar heat capacity at constant pressure: 61.2 ± 0.52 J/K/mol
115.84 K, Crystal
  molar heat capacity at constant pressure: 62.28 ± 0.52 J/K/mol
118.73 K, Crystal
  molar heat capacity at constant pressure: 63.39 ± 0.53 J/K/mol
121.63 K, Crystal
  molar heat capacity at constant pressure: 64.43 ± 0.53 J/K/mol
124.53 K, Crystal
  molar heat capacity at constant pressure: 65.69 ± 0.53 J/K/mol
127.43 K, Crystal
  molar heat capacity at constant pressure: 66.87 ± 0.53 J/K/mol
130.34 K, Crystal
  molar heat capacity at constant pressure: 68.07 ± 0.54 J/K/mol
133.25 K, Crystal
  molar heat capacity at constant pressure: 69.29 ± 0.54 J/K/mol
136.16 K, Crystal
  molar heat capacity at constant pressure: 70.53 ± 0.54 J/K/mol
139.06 K, Crystal
  molar heat capacity at constant pressure: 71.9 ± 0.54 J/K/mol
141.97 K, Crystal
  molar heat capacity at constant pressure: 73.6 ± 0.55 J/K/mol
144.84 K, Crystal
  molar heat capacity at constant pressure: 79.58 ± 0.56 J/K/mol
153 K, Liquid
  molar heat capacity at constant pressure: 106.26 ± 0.61 J/K/mol
155.75 K, Liquid
  molar heat capacity at constant pressure: 106.33 ± 0.61 J/K/mol
158.49 K, Liquid
  molar heat capacity at constant pressure: 106.55 ± 0.61 J/K/mol
161.22 K, Liquid
  molar heat capacity at constant pressure: 106.79 ± 0.61 J/K/mol
